This passage reports IC50 results from US10669242B2 (priority 2016, dated 2020).

In the assay the target is T1, recombinant glucosyltransferase domain of C. difficile Toxin B/TcdB (Clostridioides difficile, UniProt P18177).
T1 construct: 6-His (C); purchased R&D Systems 6246-GT
T1 sequence (P18177 1-543): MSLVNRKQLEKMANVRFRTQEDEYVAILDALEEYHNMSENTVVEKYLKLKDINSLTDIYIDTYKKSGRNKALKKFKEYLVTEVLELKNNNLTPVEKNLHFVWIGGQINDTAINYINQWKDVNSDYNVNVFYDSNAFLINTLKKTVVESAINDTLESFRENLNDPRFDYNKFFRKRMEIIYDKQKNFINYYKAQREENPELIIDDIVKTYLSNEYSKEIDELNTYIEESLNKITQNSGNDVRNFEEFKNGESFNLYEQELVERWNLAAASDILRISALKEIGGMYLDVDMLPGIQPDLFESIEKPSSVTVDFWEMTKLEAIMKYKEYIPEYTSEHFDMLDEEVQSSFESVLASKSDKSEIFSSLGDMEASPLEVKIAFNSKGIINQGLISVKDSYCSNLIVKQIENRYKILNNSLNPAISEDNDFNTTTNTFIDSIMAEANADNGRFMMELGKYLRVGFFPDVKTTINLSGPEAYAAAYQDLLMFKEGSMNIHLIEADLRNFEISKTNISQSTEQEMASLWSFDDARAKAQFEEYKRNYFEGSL
In words: biochemical.
The IC50 is the concentration that inhibits the measured activity by half. With `O=C(c1ccccn1)c1ccc(CN2C(=O)c3ccc(Cl)cc3NC(=O)[C@H]2Cc2ccccn2)cc1F` [Example 11f, (R)-8-chloro-4-(3-fluoro-4-picolinoylbenzyl)-3-(pyridin-2-ylmethyl)-3,4-dihydro-1H-benzo[e][1,4]diazepine-2,5-dione], the IC50 is less than 0.1 µM.

With `COc1ccc2c(c1)NC(=O)[C@@H](Cc1cccnc1)N(Cc1ccc(C(=O)O)cc1)C2=O` [Example 2e], the IC50 fell in the range of 1 to 10 µM.

On to `O=C1Nc2cc(Cl)ccc2C(=O)N(Cc2ccc(C(=O)N3CCc4cccnc43)c(F)c2)[C@@H]1Cc1ccccn1` [Example 6e, (R)-8-chloro-4-(4-(2,3-dihydro-1H-pyrrolo[2,3-b]pyridine-1-carbonyl)-3-fluorobenzyl)-3-(pyridin-2-ylmethyl)-3,4-dihydro-1H-benzo[e][1,4]diazepine-2,5-dione], for which the IC50 lay in the range of 0.1 to 0.999 µM.

`O=C(Nc1ccc(CN2C(=O)c3ccc(Cl)cc3NC(=O)[C@H]2Cc2ccccn2)cc1)c1cc(Cl)ccn1` [Example 26h]: the IC50 was in the range of 0.1 to 0.999 µM.

As to `O=C1Nc2cc(Cl)ccc2C(=O)N(Cc2ccc(C(=O)N3CCCC3=O)cc2)[C@@H]1Cc1ccccn1` [Example 12b, (R)-8-chloro-4-(4-(2-oxopyrrolidine-1-carbonyl)benzyl)-3-(pyridin-2-ylmethyl)-3,4-dihydro-1H-benzo[e][1,4]diazepine-2,5-dione], the IC50 was in the range of 1 to 10 µM.

As to `O=C(Nc1ccc(CN2C(=O)c3ccc(Cl)cc3NC(=O)[C@H]2Cc2ccccn2)cc1)c1ncccc1Cl` [Example 26g], the concentration for half-maximal inhibition (IC50) lay within 1 to 10 µM.

Regarding `CC1(C)Cc2cccnc2N1C(=O)c1ccc(CN2C(=O)c3ccc(Cl)cc3NC(=O)[C@H]2Cc2ccccn2)cc1Cl` [Example 4ar, (R)-8-chloro-4-(3-chloro-4-(2,2-dimethyl-2,3-dihydro-1H-pyrrolo[2,3-b]pyridine-1-carbonyl)benzyl)-3-(pyridin-2-ylmethyl)-3,4-dihydro-1H-benzo[e][1,4]diazepine-2,5-dione], the IC50 was less than 0.1 µM.

For the compound `O=C(O)c1ccc(CN2C(=O)c3ccc(Cl)cc3NC(=O)[C@H]2Cc2ccccc2Cl)cc1` [Example 3i], the IC50 lay in the range of 1 to 10 µM.

Take `COc1ccc(NC(=O)c2ccc(CN3C(=O)c4ccc(Cl)cc4NC(=O)C3Cc3cnccn3)cc2)nc1` (stereo not shown) [Example 5w, 4-((8-chloro-2,5-dioxo-3-(pyrazin-2-ylmethyl)-2,3-dihydro-1H-benzo[e][1,4]diazepin-4(5H)-yl)methyl)-N-(5-methoxypyridin-2-yl)benzamide]: the IC50 was less than 0.1 µM.

On to `Cc1cnc(NC(=O)[C@H]2CC[C@H](CN3C(=O)c4ccc(Cl)cc4NC(=O)[C@H]3Cc3ccccn3)CC2)nc1` [Example 5ad, (1R,4r)-4-(((R)-8-chloro-2,5-dioxo-3-(pyridin-2-ylmethyl)-2,3-dihydro-1H-benzo[e][1,4]diazepin-4(5H)-yl)methyl)-N-(5-methylpyrimidin-2-yl)cyclohexanecarboxamide], for which the 50% inhibitory concentration (IC50) is less than 0.1 µM.

Consider `COc1ccc2c(c1)NC(=O)[C@@H](Cc1ccc(Cl)c(Cl)c1)N(Cc1ccc(C(=O)O)cc1)C2=O` [Example 2f], for which the IC50 was in the range of 1 to 10 µM.

As to `Cc1cnc(NC(=O)c2ccc(CN3C(=O)c4ccc(Cl)cc4NC(=O)[C@H]3Cc3ccccn3)cc2Cl)nc1` [Example 5as, (R)-2-chloro-4-((8-chloro-2,5-dioxo-3-(pyridin-2-ylmethyl)-2,3-dihydro-1H-benzo[e][1,4]diazepin-4(5H)-yl)methyl)-N-(5-methylpyrimidin-2-yl)benzamide], the IC50 is less than 0.1 µM.

On to `O=C(O)c1ccc(CN2C(=O)c3ccc(Cl)cc3NC(=O)[C@H]2Cc2ccccn2)cc1-c1ccc(F)cc1` [Example 8d, (R)-5-((8-chloro-2,5-dioxo-3-(pyridin-2-ylmethyl)-2,3-dihydro-1H-benzo[e][1,4]diazepin-4(5H)-yl)methyl)-4′-fluoro-[1,1′-biphenyl]-2-carboxylic acid], for which the IC50 was in the range of 0.1 to 0.999 µM.
